Measurements from ChEMBL document CHEMBL5678810.

Legend:
[1] = target: T1, Mitogen-activated protein kinase kinase kinase 7 (Homo sapiens) (UniProt O43318); experiment: Inhibition of T7 bacteriophage fused human TAK1 at 10 uM by KINOMEscan analysis relative to control
T1 sequence (whole entry): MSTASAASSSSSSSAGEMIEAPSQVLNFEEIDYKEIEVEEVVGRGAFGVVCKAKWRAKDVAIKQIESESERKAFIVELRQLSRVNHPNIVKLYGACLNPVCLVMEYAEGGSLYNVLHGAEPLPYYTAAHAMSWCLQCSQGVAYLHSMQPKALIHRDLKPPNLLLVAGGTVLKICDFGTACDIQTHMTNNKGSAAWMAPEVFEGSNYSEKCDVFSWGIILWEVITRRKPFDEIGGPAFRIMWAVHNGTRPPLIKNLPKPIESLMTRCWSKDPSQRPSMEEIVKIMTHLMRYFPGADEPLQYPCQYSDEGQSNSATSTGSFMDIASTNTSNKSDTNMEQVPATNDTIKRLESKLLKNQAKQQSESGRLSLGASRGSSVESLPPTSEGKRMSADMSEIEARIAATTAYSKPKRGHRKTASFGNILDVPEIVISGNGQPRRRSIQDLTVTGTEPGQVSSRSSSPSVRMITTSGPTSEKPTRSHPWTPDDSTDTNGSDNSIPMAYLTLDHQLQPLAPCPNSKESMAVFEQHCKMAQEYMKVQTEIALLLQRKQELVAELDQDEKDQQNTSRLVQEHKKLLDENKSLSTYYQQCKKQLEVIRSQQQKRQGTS

[2] = target: Angiopoietin-1 receptor (Homo sapiens) (UniProt Q02763); experiment: Inhibition of T7 bacteriophage fused human TIE2 at 10 uM by KINOMEscan analysis relative to control
Sequence of Angiopoietin-1 receptor (Homo sapiens) (Q02763 whole entry, the tested form may be a part): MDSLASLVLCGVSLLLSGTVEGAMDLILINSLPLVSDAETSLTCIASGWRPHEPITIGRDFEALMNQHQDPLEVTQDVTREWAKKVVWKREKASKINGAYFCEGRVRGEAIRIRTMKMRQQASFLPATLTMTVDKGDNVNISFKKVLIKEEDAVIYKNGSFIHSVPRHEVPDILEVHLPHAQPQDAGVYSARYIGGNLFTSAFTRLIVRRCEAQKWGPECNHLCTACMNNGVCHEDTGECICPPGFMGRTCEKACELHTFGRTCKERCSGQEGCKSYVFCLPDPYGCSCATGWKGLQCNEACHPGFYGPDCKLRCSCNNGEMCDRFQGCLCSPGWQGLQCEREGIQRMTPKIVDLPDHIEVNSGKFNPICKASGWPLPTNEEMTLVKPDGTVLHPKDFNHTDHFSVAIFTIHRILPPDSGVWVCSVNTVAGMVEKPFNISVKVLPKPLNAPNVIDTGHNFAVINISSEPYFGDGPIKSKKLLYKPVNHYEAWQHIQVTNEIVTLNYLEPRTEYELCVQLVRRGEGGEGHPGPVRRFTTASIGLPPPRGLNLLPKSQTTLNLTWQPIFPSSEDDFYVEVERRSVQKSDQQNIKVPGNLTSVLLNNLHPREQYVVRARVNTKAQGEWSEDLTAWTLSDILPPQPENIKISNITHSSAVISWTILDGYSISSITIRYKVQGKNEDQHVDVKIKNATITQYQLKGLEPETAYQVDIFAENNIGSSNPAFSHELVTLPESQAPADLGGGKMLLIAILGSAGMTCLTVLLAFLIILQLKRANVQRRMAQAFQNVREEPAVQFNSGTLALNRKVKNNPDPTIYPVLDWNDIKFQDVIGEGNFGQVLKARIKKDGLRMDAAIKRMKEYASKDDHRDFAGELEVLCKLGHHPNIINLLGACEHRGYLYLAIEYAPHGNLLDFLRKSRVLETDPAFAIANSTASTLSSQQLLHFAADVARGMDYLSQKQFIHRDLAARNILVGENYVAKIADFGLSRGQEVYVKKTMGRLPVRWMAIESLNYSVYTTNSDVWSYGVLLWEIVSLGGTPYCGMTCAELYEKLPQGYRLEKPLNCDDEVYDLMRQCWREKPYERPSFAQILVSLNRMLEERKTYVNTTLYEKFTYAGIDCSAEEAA

[3] = target: T2, Tyrosine-protein kinase receptor TYRO3 (Homo sapiens) (UniProt Q06418); experiment: Inhibition of T7 bacteriophage fused human TYRO3 at 10 uM by KINOMEscan analysis relative to control
T2 sequence (whole entry): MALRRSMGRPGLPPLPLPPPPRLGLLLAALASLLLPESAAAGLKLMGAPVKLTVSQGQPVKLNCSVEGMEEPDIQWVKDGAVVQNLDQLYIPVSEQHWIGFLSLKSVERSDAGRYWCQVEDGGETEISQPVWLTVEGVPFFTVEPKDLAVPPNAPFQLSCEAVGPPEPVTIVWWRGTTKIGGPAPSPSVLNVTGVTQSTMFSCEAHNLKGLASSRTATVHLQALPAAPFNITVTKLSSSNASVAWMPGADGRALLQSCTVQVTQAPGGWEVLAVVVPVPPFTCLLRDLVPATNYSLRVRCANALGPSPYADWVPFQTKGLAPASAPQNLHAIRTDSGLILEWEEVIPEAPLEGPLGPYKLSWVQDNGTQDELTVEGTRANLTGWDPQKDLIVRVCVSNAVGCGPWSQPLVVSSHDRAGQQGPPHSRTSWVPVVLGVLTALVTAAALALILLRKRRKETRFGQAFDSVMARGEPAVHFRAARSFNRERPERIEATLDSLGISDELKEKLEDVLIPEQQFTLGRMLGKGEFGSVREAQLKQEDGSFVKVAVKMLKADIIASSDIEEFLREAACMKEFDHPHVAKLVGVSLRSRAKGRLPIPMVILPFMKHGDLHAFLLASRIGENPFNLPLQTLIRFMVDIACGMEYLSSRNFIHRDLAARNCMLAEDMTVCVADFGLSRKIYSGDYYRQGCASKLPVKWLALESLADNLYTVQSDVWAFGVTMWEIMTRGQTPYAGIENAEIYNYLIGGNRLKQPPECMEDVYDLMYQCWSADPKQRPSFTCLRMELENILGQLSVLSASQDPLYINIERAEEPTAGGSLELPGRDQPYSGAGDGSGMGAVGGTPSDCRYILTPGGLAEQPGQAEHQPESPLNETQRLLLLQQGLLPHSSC

[4] = target: T3, Serine/threonine-protein kinase ULK3 (Homo sapiens) (UniProt Q6PHR2); experiment: Inhibition of T7 bacteriophage fused human ULK3 at 10 uM by KINOMEscan analysis relative to control
T3 sequence (whole entry): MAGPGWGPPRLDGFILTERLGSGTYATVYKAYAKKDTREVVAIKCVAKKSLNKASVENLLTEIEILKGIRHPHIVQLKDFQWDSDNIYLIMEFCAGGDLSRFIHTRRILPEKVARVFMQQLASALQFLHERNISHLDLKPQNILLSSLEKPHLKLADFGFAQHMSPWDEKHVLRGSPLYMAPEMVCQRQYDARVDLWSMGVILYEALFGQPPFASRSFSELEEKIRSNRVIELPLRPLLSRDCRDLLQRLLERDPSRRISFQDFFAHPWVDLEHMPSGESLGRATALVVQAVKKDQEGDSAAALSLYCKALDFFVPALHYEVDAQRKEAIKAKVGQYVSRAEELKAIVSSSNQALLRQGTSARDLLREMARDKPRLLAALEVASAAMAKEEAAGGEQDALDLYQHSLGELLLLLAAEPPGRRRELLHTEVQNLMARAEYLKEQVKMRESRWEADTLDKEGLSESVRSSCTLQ

[5] = target: Wee1-like protein kinase 2 (Homo sapiens) (UniProt P0C1S8); experiment: Inhibition of T7 bacteriophage fused human WEE2 at 10 uM by KINOMEscan analysis relative to control
Sequence of Wee1-like protein kinase 2 (Homo sapiens) (P0C1S8 whole entry, looked up, the tested form may be a part): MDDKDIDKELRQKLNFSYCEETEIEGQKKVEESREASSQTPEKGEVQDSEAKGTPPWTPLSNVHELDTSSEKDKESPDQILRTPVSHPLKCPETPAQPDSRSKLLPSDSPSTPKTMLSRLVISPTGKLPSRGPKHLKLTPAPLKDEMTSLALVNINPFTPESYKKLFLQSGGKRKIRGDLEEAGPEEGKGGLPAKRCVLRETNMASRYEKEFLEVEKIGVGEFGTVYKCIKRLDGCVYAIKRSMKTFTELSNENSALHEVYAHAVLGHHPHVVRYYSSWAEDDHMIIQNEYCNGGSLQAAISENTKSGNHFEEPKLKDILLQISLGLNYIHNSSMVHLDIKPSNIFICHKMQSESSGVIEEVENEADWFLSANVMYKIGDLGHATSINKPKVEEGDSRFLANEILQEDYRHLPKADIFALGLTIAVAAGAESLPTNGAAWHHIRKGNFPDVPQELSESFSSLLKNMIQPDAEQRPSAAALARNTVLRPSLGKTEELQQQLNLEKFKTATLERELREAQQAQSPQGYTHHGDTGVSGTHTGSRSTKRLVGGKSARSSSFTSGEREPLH

Compound | inhibition [1] [%] | inhibition [2] [%] | inhibition [3] [%] | inhibition [4] [%] | inhibition [5] [%]
COc1cc(C(=O)N2CCC(N3CCN(C)CC3)CC2)ccc1Nc1ncc2c(n1)N(C1CCCC1)c1ccccc1C(=O)N2C | 100 | 100 | 100 | 100 | 100
COc1cc(N2CCC(N3CCN(C)CC3)CC2)ccc1Nc1ncc2c(n1)N(C)c1ccccc1C(=O)N2C | 98 | 100 | 100 | 100 | 100
CCOc1cc(C(=O)N2CCC(N3CCN(C)CC3)CC2)ccc1Nc1ncc2c(n1)N(C1CCCC1)c1ccccc1C(=O)N2C | 100 | 100 | 100 | 100 | 100
